From US20210161997A1, “TREATING DISEASES VIA TARGETED MODULATION OF GENE SIGNALING NETWORKS” (Camp4 Therapeutics Corporation, priority 2018, published 2021)

Key:
MECP2 mRNA [1] = experiment: qPCR of MECP2 mRNA in mouse hepatocytes; settings: 10 uM, qPCR relative to DMSO control (FIG. 8)
From the text: Samples were amplified using Taqman probes from ThermoFisher.

MECP2 mRNA [2] = experiment: MECP2 mRNA in primary human hepatocytes (donor 1, donor 2); assay type: cell-based; settings: two donors, indicated dosages vs DMSO (FIGS. 10A and 10B)
Outline: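 Cryopreserved primary human hepatocytes from separate donors were placed on serum-free or modified maintenance medium and then treated with compound for about 16–18 h. MECP2 mRNA was measured by TaqMan qPCR.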

SERPINC1 = experiment: RNA-seq of SERPINC1 expression in compound-treated primary human hepatocytes; assay type: cell-based; settings: significance FPKM ≥1, log 2(fold change) ≥0.5, q-value ≤0.05
Protocol: Human hepatocytes were obtained from two donors from Massachusetts General Hospital, namely MGH54 and MGH63, and one donor from Lonza, namely HUM4111B. Cryopreserved hepatocytes were cultured in plating media for 16 hours, transferred to maintenance media for 4 hours. Cultured on serum-free media for 2 hours, then a compound was added. The hepatocytes were maintained on the serum-free media for 16 hours prior to gene expression analysis. Primary human hepatocytes were stored in the vapor phase of a liquid nitrogen freezer (about -130° C.). Human hepatocytes cultured as described above were plated in 24-well format, adding 375,000 cells per well in a volume of 500 ul plating medium. Four hours before treatment, cells were washed with PBS and the medium was changed to either: fresh maintenance medium (complete) or modified maintenance medium. Compound stocks were prepared at 1000× final concentration and added in a 2-step dilution to the medium to reduce risk of a compound precipitating out of solution when added to the cells, and to ensure reasonable pipetting volumes. […] The plate was mixed by carefully swirling and after all wells were treated and returned to the incubator overnight. If desired, separate plates/wells were treated with vehicle-only controls and/or positive controls. If using multi-well plates, controls were included on each plate. After about 18 hours, cells were harvested for further analysis, e.g., ChIP-seq, RNA-seq, ATAC-seq, etc. This protocol is a modified version of the following protocols: MagMAX mirVana Total RNA Isolation Kit User Guide (Applied Biosystems #MAN0011131 Rev B.0), NEBNext Poly(A) mRNA Magnetic Isolation Module ([…]), and NEBNext Ultra Directional RNA Library Prep Kit for Illumina ([…]) (New England Biosystems #E74901). […] Two hundred μl of Lysis Binding Mix was used per well of the multiwell plate containing adherent cells (usually a 24-well plate). For mRNA isolation and library prep, the NEBNext Poly(A) mRNA Magnetic Isolation Module and Directional Prep kit was used. RNA isolated from cells above was quantified, and prepared in […] of each sample in 50 μl of nuclease-free water. This protocol may be run in microfuge tubes or in a 96-well plate. […] Genomic alignments were converted to transcriptome alignments based on reference transcript annotations from the Human GENCODE Gene Set release 24 (Harrow et al., Genome Res. […] Using unique and multimapped transcriptomic alignments, gene-level abundance estimates were computed using RSEM version 1.3.0 (Li and Dewey, BMC Bioinformatics (2011) 12:323) in a strand-aware manner, and including confidence interval sampling calculations, to arrive at posterior mean estimates (PME) of abundances (counts and normalized FPKM-fragments per kilobase of exon per million mapped fragments) from the underlying Bayesian model. Standard QC were applied (read integrity, mapping statistics, library complexity, fragment bias) to remove unsatisfactory samples. Differential gene expression was computed using the negative binomial model implemented by DESeq2 version 1.16.1 (Love et al., Genome Biol. (2014) 15(12):550). […] RNA-seq signals were also normalized by read depth and visualized using the UCSC browser. To identify small molecules that modulate target gene expression, primary human hepatocytes were prepared as a monoculture, and at least one small molecule compound was applied to the cells. RNA-seq was performed to determine the effects of the compounds on the expression of the target genes in hepatocytes. Fold change was calculated by dividing the level of expression in the cell system that had been perturbed by the level of expression in an unperturbed system.

UGT1A1 = experiment: RNA-seq of UGT1A1 expression in compound-treated primary human hepatocytes; assay type: cell-based
Outline: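 Cryopreserved primary human hepatocytes from three donors were plated in 24-well format, then treated with compound diluted from 1000× stocks in serum-free maintenance medium for about 16–18 h. Poly(A) RNA-seq log2 fold change was computed against vehicle/pan-experiment controls. Significance required FPKM ≥1, log2FC ≥0.5 and q ≤0.05.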

APOL1 mRNA = APOL1 mRNA in primary human hepatocytes treated with Momelotinib or metabolite M21; assay type: cell-based; settings: 3.3 uM vs DMSO (FIG. 11, FIG. 12)
FN1 = experiment: RNA-seq of FN1 expression in compound-treated primary human hepatocytes; assay type: cell-based; settings: perturbed vs unperturbed, significance FPKM ≥1, log 2(fold change) ≥0.5, q-value ≤0.05
Protocol: (§1) Human hepatocytes were obtained from two donors from Massachusetts General Hospital, namely MGH54 and MGH63, and one donor from Lonza, namely HUM4111B. Cryopreserved hepatocytes were cultured in plating media for 16 hours, transferred to maintenance media for 4 hours. Cultured on serum-free media for 2 hours, then a compound was added. The hepatocytes were maintained on the serum-free media for 16 hours prior to gene expression analysis. Primary human hepatocytes were stored in the vapor phase of a liquid nitrogen freezer (about −130° C.).
(§2) Human hepatocytes cultured as described above were plated in 24-well format, adding 375,000 cells per well in a volume of 500 ul plating medium. Four hours before treatment, cells were washed with PBS and the medium was changed to either: fresh maintenance medium (complete) or modified maintenance medium.
Compound stocks were prepared at 1000× final concentration and added in a 2-step dilution to the medium to reduce risk of a compound precipitating out of solution when added to the cells, and to ensure reasonable pipetting volumes. One at a time, each compound was first diluted 10-fold in warm (about 37° C.) modified maintenance medium (initial dilution=ID), mixed by vortexing, and the ID was diluted 100-fold into the cell culture (e.g. 5.1 ul into 1 well of a 24-well plate containing 0.5 mL medium). The plate was mixed by carefully swirling and after all wells were treated and returned to the incubator overnight. If desired, separate plates/wells were treated with vehicle-only controls and/or positive controls. If using multi-well plates, controls were included on each plate. After about 18 hours, cells were harvested for further analysis, e.g., ChIP-seq, RNA-seq, ATAC-seq, etc.
This protocol is a modified version of the following protocols: MagMAX mirVana Total RNA Isolation Kit User Guide (Applied Biosystems #MAN0011131 Rev B.0), NEBNext Poly(A) mRNA Magnetic Isolation Module (E7490), and NEBNext Ultra Directional RNA Library Prep Kit for Illumina (E7420) (New England Biosystems #E74901).
The MagMAX mirVana kit instructions (the section titled “Isolate RNA from cells” on pages 14-17) were used for isolation of total RNA from cells in culture. Two hundred μl of Lysis Binding Mix was used per well of the multiwell plate containing adherent cells (usually a 24-well plate).
For mRNA isolation and library prep, the NEBNext Poly(A) mRNA Magnetic Isolation Module and Directional Prep kit was used. RNA isolated from cells above was quantified, and prepared in […] of each sample in 50 μl of nuclease-free water. This protocol may be run in microfuge tubes or in a 96-well plate.
All pass filter reads from each sample were mapped against the human genome (assembly GRCh38/GCA_000001405.15 “no alt” analysis set merged with hs38d1/GCA_000786075.2) using two pass mapping via STAR version 2.5.3a (alignment parameters alignIntronMin=20; alignIntronMax=1000000; outFilterMismatchNmax=999; outFilterMismatchNoverLmax=0.05; outFilterType=BySJout; outFilterMultimapNmax=20; alignSJoverhangMin=8; alignSJDBoverhangMin=1; alignMatesGapMax=1000000) (Dobin et al., Bioinformatics (2012) 29(1):15-21). Genomic alignments were converted to transcriptome alignments based on reference transcript annotations from the Human GENCODE Gene Set release 24 (Harrow et al., Genome Res. (2012) 22(9): 1760-1774). Using unique and multimapped transcriptomic alignments, gene-level abundance estimates were computed using RSEM version 1.3.0 (Li and Dewey, BMC Bioinformatics (2011) 12:323) in a strand-aware manner, and including confidence interval sampling calculations, to arrive at posterior mean estimates (PME) of abundances (counts and normalized FPKM—fragments per kilobase of exon per million mapped fragments) from the underlying Bayesian model. Standard QC were applied (read integrity, mapping statistics, library complexity, fragment bias) to remove unsatisfactory samples.

HMBS = experiment: RNA-seq of HMBS expression in compound-treated primary human hepatocytes; assay type: cell-based
Protocol: as §1, §2
Compound stocks were prepared at 1000× final concentration and added in a 2-step dilution to the medium to reduce risk of a compound precipitating out of solution when added to the cells, and to ensure reasonable pipetting volumes. […]
For mRNA isolation and library prep, the NEBNext Poly(A) mRNA Magnetic Isolation Module and Directional Prep kit was used. RNA isolated from cells above was quantified, and prepared in […] of each sample in 50 μl of nuclease-free water. […]

| SMILES | MECP2 mRNA change in mouse hepatocytes (MECP2 mRNA [1]) | MECP2 mRNA change in primary human hepatocytes (MECP2 mRNA [2]) | SERPINC1 Fold Change (Log2) (SERPINC1) | UGT1A1 Fold Change (Log2) (UGT1A1) | APOL mRNA change in primary human hepatocytes (APOL1 mRNA) | FN1 Fold Change (Log2) (FN1) | HMBS Fold Change (Log2) (HMBS) |
| --- | --- | --- | --- | --- | --- | --- | --- |
| C=CCNC1=C2C[C@@H](C)C[C@H](OC)[C@H](O)[C@@H](C)/C=C(\C)[C@H](OC(N)=O)[C@@H](OC)/C=C\C=C(/C)C(=O)NC(=CC1=O)C2=O [17-AAG (Tanespimycin), Tanespimycin] | increased | dose-dependent increase | – | – | – | – | – |
| N#CCNC(=O)c1ccc(-c2ccnc(Nc3ccc(N4CCOCC4)cc3)n2)cc1 [Momelotinib] | – | – | 0.93 Log2 | 1.05 Log2 | Downregulation | – | – |
| CN1CCN(c2nc(C3=C(c4c[nH]c5ccccc45)C(=O)NC3=O)c3ccccc3n2)CC1 [Sotrastaurin] | – | – | – | 0.88 Log2 | – | −0.81 Log2 | 0.78 Log2 |
